Measured values from publication PMC5937082, “Prediction of Lipophilicity and Pharmacokinetics of Chloroacetamides by Chemometric Approach” (Iranian Journal of Pharmaceutical Research : IJPR, 2018).

Assay: Lipophilicity by reversed-phase thin-layer chromatography (RPTLC, RP-18W/UV254 plates)
Assay type: physicochemical
Conditions: φ = 0.34 - 0.56 v/v, room temperature
Protocol: During chromatographic examinations commercial plates (RP-18W/UV254 Macherey-Nagel GmBH and Co., Duren, Germany) were used as the stationary phase. Mixtures of LC grade organic modifiers (J. T. Baker, Deventer, the Netherlands) and filtered bi-distilled water were used as the mobile phase.
The tested chloroacetamides were dissolved in ethanol (analytical purity) in concentration 2 mg mL^–1. About 0.2 µL of freshly prepared solution of each compound was spotted on the plates which were then developed by the ascending technique in the unsaturated chambers at room temperature with an aqueous solutions of two organic modifiers: methanol (φ = 0.34 - 0.56, v/v) and acetone (φ = 0.34 - 0.56, v/v). The visualization of the tested compounds on the dried developed plates was performed under a UV light at λ= 254 nm. In both applied modifiers for each composition three chromatograms were developed and then the average Rf values were calculated.
From the experimentally obtained Rf values, for each composition of the mobile phase, RM values were calculated according to the Equation: […]
The relationships between the retention values, RM, of the compound and the volume fraction of the organic modifier in the mobile phase, φ, were given by:
Where intercept, RM^0, represents the chromatographic retention constant, while the slope of the linear plot, m, which is the change in RM is caused by the unit of the organic modifier concentration in the mobile phase and depends on the properties of the solute. Commonly, it is related to the specific hydrophobic surface area of the compound ([39]). Chromatographic parameter m can be applied as alternative measure of lipophilicity, also ([40], [41]).Values of these parameters obtained for chloroacetamides in the used modifiers are given in Table 4.

Row | Compound | R M ^0 (chromatographic retention constant, intercept) (acetone-water mobile phase) | m (slope of RM vs φ) (acetone-water mobile phase) | R M ^0 (chromatographic retention constant, intercept) (methanol-water mobile phase) | m (slope of RM vs φ) (methanol-water mobile phase)
1 | O=C(CCl)Nc1cccc(Br)c1 [Compound 3Br] | 1.780 (±0.105) | -3.105 (±0.238) | 1.958 (±0.115) | -3.151 (±0.251)
2 | N#Cc1cccc(NC(=O)CCl)c1 [Compound 3CN] | 1.186 (±0.101) | -2.278 (±0.218) | 1.362 (±0.082) | -2.726 (±0.182)
3 | O=C(CCl)Nc1ccc(Br)cc1 [Compound 4Br] | 1.849 (±0.087) | -3.175 (±0.195) | 1.951 (±0.100) | -3.137 (±0.218)
4 | Cc1ccc(NC(=O)CCl)cc1 [Compound 4CH3] | 1.370 (±0.097) | -2.583 (±0.220) | 1.542 (±0.067) | -2.673 (±0.146)
5 | N#Cc1ccc(NC(=O)CCl)cc1 [Compound 4CN] | 1.074 (±0.117) | -2.033 (±0.263) | 1.382 (±0.039) | -2.749 (±0.086)
6 | CC(=O)c1ccc(NC(=O)CCl)cc1 [Compound 4COCH3] | 1.118 (±0.077) | -2.396 (±0.173) | 1.275 (±0.121) | -2.549 (±0.263)
7 | O=C(CCl)Nc1ccc(Cl)cc1 [Compound 4Cl] | 1.636 (±0.139) | -2.945 (±0.313) | 1.788 (±0.140) | -2.944 (±0.306)
8 | O=C(CCl)Nc1ccc(F)cc1 [Compound 4F] | 1.341 (±0.042) | -2.440 (±0.095) | 1.354 (±0.088) | -2.486 (±0.192)
9 | O=C(CCl)Nc1ccc(I)cc1 [Compound 4I] | 1.963 (±0.143) | -3.375 (±0.323) | 2.124 (±0.122) | -3.282 (±0.266)
10 | COc1ccc(NC(=O)CCl)cc1 [Compound 4OCH3] | 1.130 (±0.115) | -2.431 (±0.258) | 1.247 (±0.122) | -2.478 (±0.265)
11 | O=C(CCl)Nc1ccc(O)cc1 [Compound 4OH] | 0.763 (±0.030) | -1.865 (±0.068) | 1.577 (±0.069) | -3.032 (±0.154)
12 | O=C(CCl)Nc1ccccc1 [H] | 1.106 (±0.132) | -2.225 (±0.285) | 1.171 (±0.123) | -2.309 (±0.268)
